Data: US20260285850A1, “SUBSTITUTED OXAZOLIDINONES AND IMIDAZOLINONES AS HERBICIDES” (FMC CORPORATION, priority 2023, published 2026)

Experiments:
Assay type in all cases: in vivo
[1] = test system: green foxtail (Setaria viridis); experiment: Test A preemergence soil spray, visual injury rating 0-100; details: 10 days
How it was run: (§1)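 Directed preemergence spray onto seeded soil or postemergence spray onto 2-10 cm plants (loam plus sand); compound carried in surfactant-containing non-phytotoxic solvent. Injury rated by eye after 10 d greenhouse growth; 0 = no effect, 100 = complete control.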

soybean (Glycine max) [2] = experiment: as above; details: 10 days
How it was run: as §1

[3] = test system: oat, wild (wild oat, Avena fatua); experiment: as above; details: 10 days
How it was run: as §1

[4] = test system: ragweed (common ragweed, Ambrosia artemisiifolia); experiment: as above; details: 10 days
How it was run: as §1

[5] = test system: palmer (palmer amaranth, palmer pigweed, Amaranthus palmeri); experiment: as above; details: 10 days
How it was run: as §1

kochia (Bassia scoparia) [6] = experiment: as above; details: 10 days
How it was run: as §1

[7] = test system: barnyardgrass (Echinochloa crus-galli); experiment: as above; details: 10 days
How it was run: as §1

[8] = test system: wheat (Triticum aestivum); experiment: as above; details: 10 days
How it was run: as §1

[9] = test system: blackgrass (Alopecurus myosuroides); experiment: as above; details: 10 days
How it was run: as §1

[10] = test system: ryegrass, Italian (italian ryegrass, Lolium multiflorum); experiment: as above; details: 10 days
How it was run: as §1

corn (Zea mays) [11] = experiment: as above; details: 10 days
How it was run: as §1

[12] = test system: barnyardgrass (Echinochloa crusgalli); experiment: Test B flooded paddy test, visual plant response rating 0-100; details: 250 g ai/ha, Flood, applied to paddy water, evaluated after 13 days
How it was run: (§2)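 Treatment occurs at the 2-leaf stage by adding compound to floodwater standing 3 cm above the soil, a level kept for the whole test. Plants stay in the greenhouse 13 days before visual comparison with controls.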

[13] = test system: sedge, umbrella (small-flower umbrella sedge, Cyperus difformis); experiment: as above; details: 250 g ai/ha, Flood, applied to paddy water, evaluated after 13 days
How it was run: as §2

rice (Oryza sativa) = experiment: as above; details: 250 g ai/ha, Flood, applied to paddy water, evaluated after 13 days
How it was run: as §2

[14] = test system: ducksalad (Heteranthera limosa); experiment: as above; details: 250 g ai/ha, Flood, applied to paddy water, evaluated after 13 days
How it was run: as §2

[15] = test system: green foxtail (Setaria viridis); experiment: Test A postemergence application, visual injury rating 0-100
How it was run: as §1

soybean (Glycine max) [16] = experiment: as above
How it was run: as §1

[17] = test system: oat, wild (wild oat, Avena fatua); experiment: as above
How it was run: as §1

[18] = test system: horseweed (Erigeron canadensis); experiment: as above
How it was run: as §1

[19] = test system: ragweed (common ragweed, Ambrosia artemisiifolia); experiment: as above
How it was run: as §1

[20] = test system: palmer (palmer amaranth, palmer pigweed, Amaranthus palmeri); experiment: as above
How it was run: as §1

kochia (Bassia scoparia) [21] = experiment: as above
How it was run: as §1

[22] = test system: barnyardgrass (Echinochloa crus-galli); experiment: as above
How it was run: as §1

[23] = test system: galium (catchweed bedstraw, Galium aparine); experiment: as above
How it was run: as §1

[24] = test system: wheat (Triticum aestivum); experiment: as above
How it was run: as §1

[25] = test system: blackgrass (Alopecurus myosuroides); experiment: as above
How it was run: as §1

[26] = test system: ryegrass, Italian (italian ryegrass, Lolium multiflorum); experiment: as above
How it was run: as §1

corn (Zea mays) [27] = experiment: as above
How it was run: as §1

[28] = 62 g ai/ha, 0 = no effect, 100 = complete control
[29] = 62 g ai/ha, postemergence, 10 days, 0 = no effect, 100 = complete control
[30] = Postemergence, 16 g ai/ha, greenhouse 10 days, 0 no effect, 100 complete control

Question: Which results are given for CC1(C(=O)NC2CC=C(C(=O)O)C2)CN(c2cc(Cl)cc(Cl)c2)C(=O)O1 (stereo not shown) [Compound 158]?
Answer: Foxtail, Green plant response rating ([1]; 16 g ai/ha, 0 to 100 scale): 0; Foxtail, Green plant response rating (0-100) [1, 28]: 90; Soybean plant response rating (soybean (Glycine max) [2]; 16 g ai/ha, 0 to 100 scale): 0; Soybean plant response rating (0-100) (soybean (Glycine max) [2]; [28]): 20; Oat, Wild plant response rating ([3]; 16 g ai/ha, 0 to 100 scale): 10; Oat, Wild plant response rating (0-100) [3, 28]: 30; Ragweed plant response rating ([4]; 16 g ai/ha, 0 to 100 scale): 0; Ragweed plant response rating (0-100) [4, 28]: 70; Pigweed, Palmer plant response rating ([5]; 16 g ai/ha, 0 to 100 scale): 50; Pigweed, Palmer plant response rating (0-100) [5, 28]: 90; Kochia plant response rating (kochia (Bassia scoparia) [6]; 16 g ai/ha, 0 to 100 scale): 30; Kochia plant response rating (0-100) (kochia (Bassia scoparia) [6]; [28]): 80; Barnyardgrass plant response rating ([7]; 16 g ai/ha, 0 to 100 scale): 40; Barnyardgrass plant response rating (0-100) [7, 28]: 90; Wheat plant response rating ([8]; 16 g ai/ha, 0 to 100 scale): 40; Wheat plant response rating (0-100) [8, 28]: 80; Blackgrass plant response rating ([9]; 16 g ai/ha, 0 to 100 scale): 0; Blackgrass plant response rating (0-100) [9, 28]: 50; Ryegrass, Italian plant response rating ([10]; 16 g ai/ha, 0 to 100 scale): 0; Ryegrass, Italian plant response rating (0-100) [10, 28]: 70; Corn plant response rating (corn (Zea mays) [11]; 16 g ai/ha, 0 to 100 scale): 0; Corn plant response rating (0-100) (corn (Zea mays) [11]; [28]): 60; Plant response rating, Barnyardgrass (0 to 100 scale, 0 is no effect and 100 is complete control) [12]: 90; Plant response rating, Sedge, Umbrella (0 to 100 scale, 0 is no effect and 100 is complete control) [13]: 98; Plant response rating, Rice (0 to 100 scale, 0 is no effect and 100 is complete control) (rice (Oryza sativa)): 50; Plant response rating, Ducksalad (0 to 100 scale, 0 is no effect and 100 is complete control) [14]: 70; Foxtail, Green plant response rating (0-100) [15, 29]: 90; Foxtail, Green plant response rating (0 to 100 scale) [15, 30]: 90; Soybean plant response rating (0-100) (soybean (Glycine max) [16]; [29]): 90; Soybean plant response rating (0 to 100 scale) (soybean (Glycine max) [16]; [30]): 60; Oat, Wild plant response rating (0-100) [17, 29]: 90; Oat, Wild plant response rating (0 to 100 scale) [17, 30]: 20; Horseweed plant response rating (0-100) [18, 29]: 70; Horseweed plant response rating (0 to 100 scale) [18, 30]: 30; Ragweed plant response rating (0-100) [19, 29]: 60; Ragweed plant response rating (0 to 100 scale) [19, 30]: 50; Pigweed, Palmer plant response rating (0-100) [20, 29]: 90; Pigweed, Palmer plant response rating (0 to 100 scale) [20, 30]: 90; Kochia plant response rating (0-100) (kochia (Bassia scoparia) [21]; [29]): 90; Kochia plant response rating (0 to 100 scale) (kochia (Bassia scoparia) [21]; [30]): 80; Barnyardgrass plant response rating (0-100) [22, 29]: 100; Barnyardgrass plant response rating (0 to 100 scale) [22, 30]: 90; Galium plant response rating (0-100) [23, 29]: 90; Galium plant response rating (0 to 100 scale) [23, 30]: 90; Wheat plant response rating (0-100) [24, 29]: 80; Wheat plant response rating (0 to 100 scale) [24, 30]: 70; Blackgrass plant response rating (0-100) [25, 29]: 100; Blackgrass plant response rating (0 to 100 scale) [25, 30]: 80; Ryegrass, Italian plant response rating (0-100) [26, 29]: 80; Ryegrass, Italian plant response rating (0 to 100 scale) [26, 30]: 80; Corn plant response rating (0-100) (corn (Zea mays) [27]; [29]): 100; Corn plant response rating (0 to 100 scale) (corn (Zea mays) [27]; [30]): 100
